Results: patent publication US20180304191A1, “METHOD FOR THE SELECTIVE REMOVAL OF HYDROGEN SULFIDE” (BASF SE, priority 2015, published 2018)

Assays:
[1] = Thermal stability (decomposition level of the amine in acid-gas-laden absorbent); assay type: physicochemical; details: 160° C., 125 h, 30% by weight amine solution
Method: A Hastelloy cylinder (10 mL) was initially charged with the absorbent (30% by weight amine solution, 8 mL) and the cylinder was closed. […] The acid gas loading of the solutions was 20 m^3 (STP)/tsolvent of CO2 and 20 m^3 (STP)/tsolvent of H2S. The decomposition level of the amines was calculated from the amine concentration measured by gas chromatography before and after the experiment.

[2] = pKA determination by titration with hydrochloric acid (pH at half-equivalence); details: for pKA1: 1st dissociation stage; for pKA2: 2nd dissociation stage
From the text: Measurement was accomplished using a thermostated closed jacketed vessel in which the liquid was blanketed with nitrogen. The Hamilton Polylite Plus 120 pH electrode was used, which was calibrated with pH 7 and pH 12 buffer solutions.

[3] = Dynamic viscosity (Anton Paar Stabinger SVM3000 viscometer); assay type: physicochemical
Method: The dynamic viscosities of various compounds were measured in a viscometer (Anton Paar Stabinger SVM3000 viscometer).
In addition, the dynamic viscosities of various absorbents (without acid gas loading) were measured in the same instrument.

[4] = absorbent: amine 30% by wt. in sulfolane 70% by wt., without acid gas loading
[5] = absorbent: amine 30% by wt. in EG 70% by wt., without acid gas loading

| Thermal stability (comparison in words) [1] | pKA1 ([2]; 0.01 mol/kg amine, 20° C.) | pKA2 ([2]; 0.01 mol/kg amine, 20° C.) | ΔpKA1 (120-20° C.) ([2]; difference of pKA1 between 120° C. and 20° C.) | Dynamic viscosity [3, 4] [mPa · s] | Dynamic viscosity ([3]; amine compound itself) [mPa · s] | Dynamic viscosity [3, 5] [mPa · s] | Compound | pKA3 ([2]; 0.01 mol/kg amine, 20° C., 3rd dissociation stage) | Dynamic viscosity ([3]; absorbent: amine 30% by wt. in TEG 70% by wt., without acid gas loading) [mPa · s] |
| --- | --- | --- | --- | --- | --- | --- | --- | --- | --- |
| higher thermal stability than MDEA | 10.4 | 8.4 | 2.4 | 5.5 | 1.5 |  | CN(C)CCOCCNC(C)(C)C [TBAEEDA, 2-(2-tert-butylaminoethoxy)ethyl-N,N-dimethylamine] |  |  |
|  |  |  |  |  | 1844 | 25.3 | CCC(N)(CO)CO [AEPD, 2-amino-2-ethylpropane-1,3-diol, reference compound] |  |  |
|  | 9.7 | 8.2 |  | 3.6 | 0.9 | 12.3 | CN(C)CCOCCN(C)C [BDMAEE, bis(2-(N,N-dimethylamino)ethyl) ether] |  |  |
|  |  |  |  |  | 16.9 | 17.2 | CC(C)(C)NCCOCCO [TBAEE, 2-(2-tert-butylaminoethoxy)ethanol, reference compound] |  |  |

| Compound | Thermal stability (comparison in words) [1] | pKA1 ([2]; 0.01 mol/kg amine, 20° C.) | pKA2 ([2]; 0.01 mol/kg amine, 20° C.) | ΔpKA1 (120-20° C.) ([2]; difference of pKA1 between 120° C. and 20° C.) | Dynamic viscosity [3, 4] [mPa · s] | Dynamic viscosity ([3]; amine compound itself) [mPa · s] | Dynamic viscosity [3, 5] [mPa · s] | pKA3 ([2]; 0.01 mol/kg amine, 20° C., 3rd dissociation stage) | Dynamic viscosity ([3]; absorbent: amine 30% by wt. in TEG 70% by wt., without acid gas loading) [mPa · s] |
| --- | --- | --- | --- | --- | --- | --- | --- | --- | --- |
| CN(C)CCN(C)CCN(C)C [PMDETA, pentamethyldiethylenetriamine] |  | 10.3 | 8.8 |  |  | 1.0 |  | 6.5 | 15.3 |
